Laboratory results reported in ChEMBL document CHEMBL3813594, “Design and structure-activity relationships of novel inhibitors of human rhinovirus 3C protease” (Bioorg Med Chem Lett, 2016).

Legend:
[1] = Antiviral activity against human rhinovirus 8 assessed as reduction in viral infection in human HeLa H1 cells pretreated for 1 to 2 hrs with virus followed by cell addition measured after 48 hrs by Celltiter-Glo reagent based assay; type: functional, Human rhinovirus A8; details: Rhinovirus A
[2] = Antiviral activity against human rhinovirus 17 assessed as reduction in viral infection in human HeLa H1 cells pretreated for 1 to 2 hrs with virus followed by cell addition measured after 48 hrs by Celltiter-Glo reagent based assay; type: functional, Human rhinovirus B17
rhinovirus A41 = test: Antiviral activity against human rhinovirus 41 assessed as reduction in viral infection in human HeLa H1 cells pretreated for 1 to 2 hrs with virus followed by cell addition measured after 48 hrs by Celltiter-Glo reagent based assay; type: functional, organism-based; details: Rhinovirus A
rhinovirus A25 = test: Antiviral activity against human rhinovirus 25 assessed as reduction in viral infection in human HeLa H1 cells pretreated for 1 to 2 hrs with virus followed by cell addition measured after 48 hrs by Celltiter-Glo reagent based assay; type: functional, organism-based; details: Rhinovirus A
rhinovirus A85 = test: Antiviral activity against human rhinovirus 85 assessed as reduction in viral infection in human HeLa H1 cells pretreated for 1 to 2 hrs with virus followed by cell addition measured after 48 hrs by Celltiter-Glo reagent based assay; type: functional, organism-based; details: Rhinovirus A
[3] = Antiviral activity against human rhinovirus 7 assessed as reduction in viral infection in human HeLa H1 cells pretreated for 1 to 2 hrs with virus followed by cell addition measured after 48 hrs by Celltiter-Glo reagent based assay; type: functional, Human rhinovirus A7; details: Rhinovirus A
rhinovirus A16 [4] = test: Antiviral activity against human rhinovirus 16 assessed as reduction in viral infection in human HeLa H1 cells pretreated for 1 to 2 hrs with virus followed by cell addition measured after 48 hrs by Celltiter-Glo reagent based assay; type: functional, organism-based
[5] = Antiviral activity against human rhinovirus 100 assessed as reduction in viral infection in human HeLa H1 cells pretreated for 1 to 2 hrs with virus followed by cell addition measured after 48 hrs by Celltiter-Glo reagent based assay; type: functional, Human rhinovirus A100; details: Rhinovirus A
rhinovirus A2 [6] = test: Antiviral activity against human rhinovirus 2 assessed as reduction in viral infection in human HeLa H1 cells pretreated for 1 to 2 hrs with virus followed by cell addition measured after 48 hrs by Celltiter-Glo reagent based assay; type: functional, organism-based
rhinovirus B14 = test: Antiviral activity against human rhinovirus 14 assessed as reduction in viral infection in human HeLa H1 cells pretreated for 1 to 2 hrs with virus followed by cell addition measured after 48 hrs by Celltiter-Glo reagent based assay; type: functional, organism-based; details: Rhinovirus B
[7] = Antiviral activity against human rhinovirus 17 assessed as reduction in viral infection in human HeLa H1 cells after 2 to 5 days by XTT reduction assay; type: functional, cell-based, Human rhinovirus B17; details: Rhinovirus B
rhinovirus A16 [8] = test: Antiviral activity against human rhinovirus 16 assessed as reduction in viral infection in human HeLa H1 cells after 2 to 5 days by XTT reduction assay; type: functional, organism-based; details: Rhinovirus A
rhinovirus A2 [9] = test: Antiviral activity against human rhinovirus 2 assessed as reduction in viral infection in human HeLa H1 cells after 2 to 5 days by XTT reduction assay; type: functional, organism-based; details: Rhinovirus A

**Q.** Which results are given for `CCOC(=O)/C=C/[C@H](C[C@@H]1CCNC1=O)NC(=O)[C@@H]1C[C@@H](c2ccccc2)CN1C(=O)[C@@H](NC(=O)c1cc(C)on1)C(C)C`?
**A.** EC50 [1]: 37 nM; EC50 ([2]; Rhinovirus B, HeLa H1): 11 nM; EC50 (rhinovirus A41): 130 nM; EC50 (rhinovirus A25): 19 nM; EC50 (rhinovirus A85): 250 nM; EC50 [3]: 81 nM; EC50 (rhinovirus A16 [4]; Rhinovirus A, HeLa H1): 24 nM; EC50 [5]: 110 nM; EC50 (rhinovirus A2 [6]; Rhinovirus A, HeLa H1): 140 nM; EC50 (rhinovirus B14): 13 nM

**Q.** With `CCOC(=O)/C=C/[C@H](C[C@@H]1CCNC1=O)NC(=O)[C@@H]1[C@@H](c2ccccc2)CN1C(=O)[C@@H](NC(=O)c1cc(C)on1)C(C)C` (stereo in doubt; 10) as the compound, how does the EC50 [1] read?
**A.** 170 nM

**Q.** What about the EC50 ([2]; hela h1) of the same compound?
**A.** 90 nM

**Q.** What about the EC50 (rhinovirus A41) of the same compound?
**A.** 530 nM

**Q.** And the EC50 (rhinovirus A25)?
**A.** 100 nM

**Q.** What about the EC50 (rhinovirus A85) of the same compound?
**A.** 1140 nM

**Q.** What about the EC50 [3] of the same compound?
**A.** 420 nM

**Q.** And the EC50 (rhinovirus A16 [4]; hela h1)?
**A.** 300 nM

**Q.** What about the EC50 [5] of the same compound?
**A.** 470 nM

**Q.** And the EC50 (rhinovirus A2 [6]; hela h1)?
**A.** 300 nM

**Q.** What about the EC50 (rhinovirus B14) of the same compound?
**A.** 91 nM

**Q.** Which results are given for `CCOC(=O)/C=C/[C@H](C[C@@H]1CCNC1=O)NC(=O)[C@@H]1C[C@@H](Cc2ccccc2)CN1C(=O)[C@@H](NC(=O)c1cc(C)on1)C(C)C`?
**A.** EC50 ([2]; Rhinovirus B, HeLa H1): 190 nM; EC50 (rhinovirus A16 [4]; Rhinovirus A, HeLa H1): 47 nM; EC50 (rhinovirus A2 [6]; Rhinovirus A, HeLa H1): 300 nM

**Q.** For `CCOC(=O)/C=C/[C@H](C[C@@H]1CCNC1=O)NC(=O)[C@@H]1C[C@@H](CC#N)CN1C(=O)[C@@H](NC(=O)c1cc(C)on1)C(C)C`, which EC50 ([2]; Rhinovirus B, HeLa H1) is on record?
**A.** 500 nM

**Q.** What about the EC50 (rhinovirus A16 [4]; Rhinovirus A, HeLa H1) of the same compound?
**A.** 199 nM

**Q.** And the EC50 (rhinovirus A2 [6]; Rhinovirus A, HeLa H1)?
**A.** 430 nM

**Q.** For `CCOC(=O)/C=C/[C@H](C[C@@H]1CCNC1=O)NC(=O)[C@@H]1[C@@H](c2ccccc2)CCN1C(=O)[C@@H](NC(=O)c1cc(C)on1)C(C)C`, which EC50 [1] is on record?
**A.** 3500 nM

**Q.** And the EC50 ([2]; Rhinovirus B, HeLa H1)?
**A.** 700 nM

**Q.** And the EC50 (rhinovirus A41)?
**A.** 4500 nM

**Q.** What about the EC50 (rhinovirus A25) of the same compound?
**A.** 4500 nM

**Q.** What about the EC50 (rhinovirus A85) of the same compound?
**A.** 9300 nM

**Q.** And the EC50 [3]?
**A.** 8300 nM

**Q.** And the EC50 (rhinovirus A16 [4]; Rhinovirus A, HeLa H1)?
**A.** 3000 nM

**Q.** What about the EC50 [5] of the same compound?
**A.** 6500 nM

**Q.** What about the EC50 (rhinovirus A2 [6]; Rhinovirus A, HeLa H1) of the same compound?
**A.** 8400 nM

**Q.** And the EC50 (rhinovirus B14)?
**A.** 2500 nM

**Q.** Which results are given for `CCOC(=O)/C=C/[C@H](C[C@@H]1CCNC1=O)NC(=O)[C@@H](CC(=O)[C@@H](NC(=O)c1cc(C)on1)C(C)C)Cc1ccc(F)cc1` [RUPINTRIVIR]?
**A.** EC50 [7]: 14 nM; EC50 (rhinovirus A16 [8]): 14 nM; EC50 (rhinovirus A2 [9]): 12 nM

**Q.** What does the source list for `CCOC(=O)/C=C/[C@H](C[C@@H]1CCNC1=O)NC(=O)[C@@H]1[C@@H](c2ccccc2)CN1C(=O)[C@@H](NC(=O)c1cc(C)on1)C(C)C` (stereo in doubt; 11)?
**A.** EC50 ([2]; hela h1): > 50000 nM; EC50 (rhinovirus A16 [4]; hela h1): > 50000 nM; EC50 (rhinovirus A2 [6]; hela h1): > 50000 nM

**Q.** For `CCOC(=O)/C=C/[C@H](C[C@@H]1CCNC1=O)NC(=O)[C@@H]1C[C@@H](C2CCCCC2)CN1C(=O)[C@@H](NC(=O)c1cc(C)on1)C(C)C`, which EC50 [1] is on record?
**A.** 22 nM

**Q.** And the EC50 ([2]; Rhinovirus B, HeLa H1)?
**A.** 7 nM

**Q.** And the EC50 (rhinovirus A41)?
**A.** 90 nM

**Q.** And the EC50 (rhinovirus A25)?
**A.** 9 nM

**Q.** What about the EC50 (rhinovirus A85) of the same compound?
**A.** 94 nM

**Q.** And the EC50 [3]?
**A.** 47 nM

**Q.** And the EC50 (rhinovirus A16 [4]; Rhinovirus A, HeLa H1)?
**A.** 15 nM

**Q.** What about the EC50 [5] of the same compound?
**A.** 80 nM

**Q.** And the EC50 (rhinovirus A2 [6]; Rhinovirus A, HeLa H1)?
**A.** 46 nM

**Q.** What about the EC50 (rhinovirus B14) of the same compound?
**A.** 11 nM

**Q.** With `CCOC(=O)/C=C/[C@H](C[C@@H]1CCNC1=O)NC(=O)[C@@H]1C[C@@H](Oc2ccccc2)CN1C(=O)[C@@H](NC(=O)c1cc(C)on1)C(C)C` as the compound, how does the EC50 ([2]; Rhinovirus B, HeLa H1) read?
**A.** 260 nM

**Q.** What about the EC50 (rhinovirus A16 [4]; Rhinovirus A, HeLa H1) of the same compound?
**A.** 59 nM

**Q.** And the EC50 (rhinovirus A2 [6]; Rhinovirus A, HeLa H1)?
**A.** 270 nM

**Q.** With `CCOC(=O)/C=C/[C@H](C[C@@H]1CCNC1=O)NC(=O)[C@@H]1CCCN1C(=O)[C@@H](NC(=O)c1cc(C)on1)C(C)C` as the compound, how does the EC50 [1] read?
**A.** 590 nM

**Q.** And the EC50 ([2]; Rhinovirus B, HeLa H1)?
**A.** 230 nM

**Q.** And the EC50 (rhinovirus A41)?
**A.** 1450 nM

**Q.** And the EC50 (rhinovirus A25)?
**A.** 1890 nM

**Q.** And the EC50 (rhinovirus A85)?
**A.** 4200 nM

**Q.** What about the EC50 [3] of the same compound?
**A.** 1300 nM

**Q.** And the EC50 (rhinovirus A16 [4]; Rhinovirus A, HeLa H1)?
**A.** 400 nM

**Q.** What about the EC50 [5] of the same compound?
**A.** 1800 nM

**Q.** What about the EC50 (rhinovirus A2 [6]; Rhinovirus A, HeLa H1) of the same compound?
**A.** 1390 nM

**Q.** And the EC50 (rhinovirus B14)?
**A.** 470 nM

**Q.** Which EC50 ([2]; Rhinovirus B, HeLa H1) does the source give for `CCOC(=O)/C=C/[C@H](C[C@@H]1CCNC1=O)NC(=O)[C@@H]1CC[C@@H](c2ccccc2)N1C(=O)[C@@H](NC(=O)c1cc(C)on1)C(C)C` here?
**A.** 150 nM

**Q.** And the EC50 (rhinovirus A16 [4]; Rhinovirus A, HeLa H1)?
**A.** 260 nM

**Q.** And the EC50 (rhinovirus A2 [6]; Rhinovirus A, HeLa H1)?
**A.** 1900 nM
